From PubChem BioAssay (NCI) come the findings set out here.

Several values for one entry are separate records, joined by “and”; a condition that tells them apart may be missing. Equal values may be shown once.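 Dose response: 5 concentrations. Exposure: 48 h. Format: 96-well plates. Endpoint: linear interpolation; highest concentration if not reached. The concentration for 50% growth inhibition is given as GI50. Definition used: TGI = concentration required for complete inhibition of growth.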

Common to all, as to test: NCI tumour cell line growth inhibition, 48 h
Assay [1] deals with UO-31 renal.
For assay [2], the system named is COLO 205 colon.
For assay [3], the system named is K-562 leukemia.
Assay [4] concerns NCI-H522 lung.
The subject of assay [5] is MOLT-4 leukemia.
Assay [6] relates to SNB-19 CNS.
Assay [7] has as its system CCRF-CEM leukemia.
The subject of assay [8] is HCT-15 colon.
Assay [9] deals with SK-MEL-28 melanoma.
Assay [10] concerns A498 renal.

With `N#Cc1c(N)oc2cc3c(C#N)c(N)oc3cc12`, the TGI in assay [1], in [2], in [3], in assay [4], in assay [5] and in [6] was greater than 100 µM in each case. In addition, the TGI in assay [7], in assay [8] and in assay [9] was greater than 100 µM each time.
Take `COc1cc2c(c3oc4c(O)cccc4c(=O)c13)CC(C(C)(O)CCl)O2` (stereo not given): the TGI is 4.9 µM in [1]; 1.85 µM in [2]; 5.94 µM in assay [4]; 20.9 µM in assay [6]; greater than 27.2 µM in assay [8]; 3.74 µM in [9]. The TGI in assay [10] came to 37.3 µM.
With `O=C(CC1(O)C(=O)Nc2ccccc21)c1cccc(O)c1` (stereo not given), the TGI in [1], in [2], in assay [3], in [4], in [5] and in [6] was greater than 100 µM each time. Also, the TGI in assay [8], in assay [9] and in [10] was greater than 100 µM in each case.
In the case of `C#Cc1c(C)c(/C=C/C(C)=C\C(=O)OC)n(C)c1C`, the TGI in assay [1], in assay [2], in assay [3], in assay [4], in [5] and in [6] was greater than 100 µM each time. Also, the TGI in assay [7], in assay [8] and in assay [10] was greater than 100 µM in each case.
In the case of `Nc1nc(N)c(CCCCc2ccc([N+](=O)[O-])cc2)c(N)n1`, the TGI in assay [1], in [2], in assay [3], in assay [4], in assay [5] and in assay [6] was greater than 100 µM each time. Further, the TGI in assay [7], in assay [8] and in [10] was greater than 100 µM each time.
As to `NP1(Oc2ccc(F)cc2)=NP(N)(Oc2ccc(F)cc2)=NP(Oc2ccc(F)cc2)(Oc2ccc(F)cc2)=N1` (stereo not given), the TGI stood at 14.2 µM in assay [1]; 19.4 µM in assay [2]; 10.5 µM in assay [5]; 22.8 µM in assay [6]; 18.9 µM in assay [7]; 14.6 µM in [8]. For the same molecule, the TGI in assay [9] was 25.2 µM; in [10], 8.71 µM.
Turning to `COc1ccc(/C=C\c2cc(OC)c(OC)c(OC)c2)cc1NC(=O)/C=C/c1cc(OC)c(OC)c(OC)c1`, the GI50 in assay [1] was 2.64 µM; in [2], 4.41 µM; in [4], 2.51 µM; in assay [5], 8.52 µM; in assay [6], 5.64 µM; in assay [7], 4.16 µM. Also, the GI50 in assay [8] was 5.14 µM; in [9], 3.42 µM; in assay [10] it was 0.949 µM. In addition, the TGI is greater than 100 µM in assay [1]; 18.5 µM in [2]; greater than 100 µM in [4]; greater than 100 µM in assay [5]; greater than 100 µM in assay [6]; greater than 100 µM in assay [7]. Also, the TGI in [8], in [9] and in [10] was greater than 100 µM each time.
With `COc1cc2c3c(c4cc(OC)c(OC)cc4c2cc1OC)CN1CCC[C@H]1C3`, the TGI in assay [1] is 1.66 µM and 1 µM; in assay [3] it was > 10 µM and 19.3 µM; in assay [4] it was 1.01 µM and 0.54 µM; in assay [5], greater than 34.9 µM; in [6], 0.184 µM; in assay [7], 0.977 µM and 4.84 µM. The molecule further gave a TGI in [10] of 0.0368 µM. Also, the GI50 in assay [2] is 0.0592 µM and < 0.01 µM; in assay [5] it was 0.0382 µM and < 0.01 µM; in assay [7] it was 0.0524 µM and < 0.0104 µM; in assay [8], 0.0463 µM and 0.0111 µM.
Consider `COc1cc([C@@H]2c3cc4c(cc3[C@@H](OC3OC5COC(C)OC5C(O)C3O)[C@H]3COC(=O)[C@H]23)OCO4)cc(OC)c1O` (stereo not given in full), for which the TGI was 110 µM and 89.7 µM and 175 µM in assay [1]; 118 µM and 500 µM and 171 µM in assay [6]; 285 µM and 169 µM in assay [8]; 125 µM and 363 µM and 198 µM in assay [9]; 59.9 µM and 12 µM and 55.4 µM in assay [10].
Consider `Cc1ccc2nc(CN(CCN(Cc3nc4ccc(C)cc4[nH]3)Cc3nc4ccc(C)cc4[nH]3)Cc3nc4ccc(C)cc4[nH]3)[nH]c2c1`, for which the GI50 in [1] is 1.71 µM; in assay [2], 1.7 µM; in [3], 1.72 µM; in assay [6] it was 1.7 µM; in assay [8], 1.62 µM; in [9] it was 1.75 µM. In addition, the GI50 in assay [10] is 1.71 µM. The TGI is 3.14 µM in assay [1]; 3.15 µM in assay [2]; 3.76 µM in assay [3]; 3.07 µM in assay [6]; 3.01 µM in assay [8]; 3.15 µM in [9]. This molecule displayed a TGI in [10] of 3.14 µM.
Consider `O=C1N(c2ccc(Cl)cc2)C(=O)C2(SC=NN2Cc2ccccc2)N1c1ccc(Cl)cc1` (stereo not given), for which the TGI in assay [1], in assay [3], in [4], in assay [5], in assay [6] and in assay [7] was greater than 100 µM in each case. Also, the TGI in assay [9] and in [10] was greater than 100 µM each time.
On to `ClC/C=C/CSc1ncnc2nc[nH]c12`, for which the GI50 in assay [1], in assay [2], in assay [3], in [5], in assay [6] and in [7] was greater than 100 µM in each case. Further, the GI50 in [8], in assay [9] and in [10] was greater than 100 µM in each case. Besides, the TGI in assay [1], in assay [2], in assay [3], in [5], in assay [6] and in [7] was greater than 100 µM in each case. Moreover, the TGI in [8], in assay [9] and in [10] was greater than 100 µM in each case.
